Laboratory results: ChEMBL document CHEMBL5120783, “Procyanidins and Phlobatannins from the Twigs of Rosa multiflora and Their Neuroprotective Activity” (J Nat Prod, 2022)

Assays:
BV-2 = test: Anti-neuroinflammatory activity in mouse BV-2 cells assessed as inhibition of LPS-induced NO production; type: functional, cell-based
[1] = Cytotoxicity against mouse BV-2 cells assessed as cell viability at 25 uM by MTT assay; type: toxicity, cell-based; details: read-out: Activity
C6 = test: Neuroprotective activity in rat C6 cells assessed as NGF secretion level at 25 uM measured after 24 hrs by ELISA; type: functional
[2] = Cytotoxicity against rat C6 cells assessed as cell viability at 25 uM by MTT assay; type: toxicity, cell-based; details: read-out: Activity

| SMILES | IC50 (BV-2) | viability at 25 µM [1] | Activity (C6) | viability at 25 µM [2] |
| --- | --- | --- | --- | --- |
| CNC(=N)NCCC[C@H](N)C(=O)O [TILARGININE] | 27.2 µM | 104% |  |  |
| CCCCC/C=C/C(=O)CCc1ccc(O)c(OC)c1 [SHOGAOL] |  |  | 118.5% | 116% |
| OC[C@H]1O[C@@H](O[C@H]2c3ccc(O)cc3O[C@@H](c3ccc(O)cc3)[C@@H]2O)[C@H](O)[C@@H](O)[C@@H]1O | 51.5 µM | 98.9% | 103.8% | 102% |

Second part, led by results:

| IC50 (BV-2) | SMILES | viability at 25 µM [1] | Activity (C6) | viability at 25 µM [2] |
| --- | --- | --- | --- | --- |
| 36.9 µM | COc1cc([C@@H]2Oc3cc(CCCO)cc(O)c3O[C@H]2CO)ccc1O | 92.4% |  |  |
| 50.6 µM | COc1cc([C@@H]2Oc3cc(CCCO)cc(O)c3O[C@H]2CO)ccc1O[C@@H]1O[C@H](CO)[C@@H](O)[C@H](O)[C@H]1O | 95.9% | 107.6% | 99.2% |
